The NIST ThermoML archive (doi:10.1016/j.fluid.2011.08.018)
± gives the expanded uncertainty stated by the source.

Assay: mean ionic activity coefficient (dimensionless); mn = molality of the nth substance listed, in mol/kg
Conditions: 298.15 K, 101 kPa, Liquid, EMF measurements

[Cl-].[Na+] [sodium chloride] + O
Conditions	mean ionic activity coefficient
m1 = 0.0496	0.819 ± 0.01
m1 = 0.1857	0.733 ± 0.01
m1 = 0.1979	0.733 ± 0.01
m1 = 0.3096	0.707 ± 0.01
m1 = 0.3711	0.689 ± 0.01
m1 = 0.4571	0.686 ± 0.01
m1 = 0.5916	0.675 ± 0.01
m1 = 0.6871	0.659 ± 0.01
m1 = 0.8318	0.663 ± 0.01
m1 = 1.139	0.651 ± 0.01
m1 = 1.212	0.659 ± 0.01
m1 = 1.77	0.657 ± 0.01
m1 = 1.87	0.67 ± 0.01
m1 = 2.394	0.68 ± 0.01
m1 = 2.624	0.702 ± 0.01
m1 = 3.587	0.75 ± 0.01
m1 = 3.811	0.78 ± 0.01
m1 = 4.654	0.83 ± 0.01
m1 = 5.142	0.891 ± 0.01
m1 = 5.443	0.921 ± 0.01
m1 = 5.693	0.929 ± 0.01
m1 = 5.891	0.97 ± 0.01
m1 = 6.032	0.985 ± 0.01
m1 = 6.085	0.976 ± 0.01
m1 = 6.1	0.997 ± 0.01

[Cl-].[Na+] [sodium chloride] + CNC=O
Conditions	mean ionic activity coefficient
m1 = 0.0396	0.986 ± 0.01
m1 = 0.052	0.985 ± 0.01
m1 = 0.0642	0.983 ± 0.01
m1 = 0.102	0.984 ± 0.01
m1 = 0.1375	0.984 ± 0.01
m1 = 0.1655	0.978 ± 0.01
m1 = 0.1934	0.971 ± 0.01
